{
  "source": "patent US20170368148A1",
  "about": "“USES OF A PTHrP ANALOGUE IN REDUCING FRACTURE RISK” (RADIUS HEALTH, INC., priority 2015, published 2017)",
  "key": {"[1]": {"system": "postmenopausal women with osteoporosis", "experiment": "Phase 2 trial: safety, serum calcium, antibody formation", "settings": "20 μg daily SC", "procedure": "All subjects received supplemental calcium (500-1000 mg) and vitamin D (400-800 IU) per local practice. […] Blood calcium levels were assessed 4-hours and 24-hours after drug administration. Subjects were monitored for adverse events (AEs) and local tolerance at the injection site at each visit. Clinical and laboratory safety parameters, electrocardiograms, were also measured at each study visit.\nEfficacy and safety were assessed using all randomized patients who received at least one dose of study drug. Baseline characteristics and safety parameters were summarized using descriptive statistics. […] All hypotheses were tested at the 2-sided 5% significance level."}, "[2]": {"system": "postmenopausal women with osteoporosis", "experiment": "ACTIVE phase 3 trial: fracture rates and fracture risk reduction, 18 months", "type": "in vivo, human", "settings": "abaloparatide 80 μg or teriparatide 20 μg daily SC", "experimental": "The ACTIVE phase 3 fracture prevention trial was conducted for abaloparatide in postmenopausal women with osteoporosis who were otherwise healthy. The enrolled subjects were treated with 80 micrograms (μg) of abaloparatide, a matching placebo, or the approved daily dose of 20 μg of teriparatide for 18 months. The ACTIVE trial evaluated fracture rates, fracture risks, BMD, and bone turnover biomarkers (e.g., CTX and P1NP) in all patient groups.\nFracture risk reduction and hazard ratio (HR) were derived from Kaplan-Meier (KM) curve.\nThe ACTIVE pivotal Phase 3 fracture prevention trial for the PTHrP analogue abaloparatide, Study BA058-05-003 (see ClinicalTrials.gov), was a randomized, double-blind, placebo-controlled trial in postmenopausal osteoporotic women randomized to receive daily doses of one of the following for 18 months: 80 micrograms (μg) of abaloparatide; a matching placebo; or the approved daily dose of 20 μg of teriparatide. Treatment with abaloparatide at a daily dose of 80 μg or placebo remained blinded to all parties throughout the study. Teriparatide used was a proprietary prefilled drug and device combination that could not be repackaged. Therefore, its identity could not be blinded to treating physicians and patients once use began. Study medication was self-administered daily by subcutaneous injection for a maximum of 18 months. All enrolled patients also received calcium and vitamin D supplementation from the time of enrollment until the end of the treatment period. It was recommended to patients that they also continue these supplements through the one-month follow-up period.\nThe trial completed enrollment in March 2013 with 2,463 patients at 28 medical centers in 10 countries in the United States, Europe, Latin America, and Asia. The baseline characteristics of the selected patients are detailed in Table 3 below.\nThe study enrolled otherwise healthy ambulatory women aged 49 to 86 (inclusive) who had been postmenopausal for at least five years, met the study entry criteria, and had provided written informed consent. […] All patients were to be in good general health as determined by medical history, physical examination (including vital signs), and clinical laboratory testing. This study population contained a patient population reflective of the type of severe osteoporosis patients that specialists would be expected to treat in their practices.\nAs set forth in the ACTIVE protocol, the primary efficacy endpoint was the number of patients treated with abaloparatide with incident vertebral fractures at the end of treatment as compared to those who received placebo. The pre-specified secondary efficacy parameters included, among other endpoints, reduction in the incidence/risk of non-vertebral fractures; changes in BMD of the spine, hip, and femoral neck from baseline to end of treatment as assessed by DXA and as compared to teriparatide; and the number of hypercalcemic events in abaloparatide treated patients when compared to teriparatide at end of treatment."}},
  "data": [
    {"smiles": "CC[C@H](C)[C@H](NC(=O)[C@H](CCC(=O)O)NC(=O)[C@H](CO)NC(=O)[C@@H](NC(=O)[C@@H](N)CO)C(C)C)C(=O)N[C@@H](CCC(N)=O)C(=O)N[C@@H](CC(C)C)C(=O)N[C@@H](CCSC)C(=O)N[C@@H](Cc1cnc[nH]1)C(=O)N[C@@H](CC(N)=O)C(=O)N[C@@H](CC(C)C)C(=O)NCC(=O)N[C@@H](CCCCN)C(=O)N[C@@H](Cc1cnc[nH]1)C(=O)N[C@@H](CC(C)C)C(=O)N[C@@H](CC(N)=O)C(=O)N[C@@H](CO)C(=O)N[C@@H](CCSC)C(=O)N[C@@H](CCC(=O)O)C(=O)N[C@@H](CCCN=C(N)N)C(=O)N[C@H](C(=O)N[C@@H](CCC(=O)O)C(=O)N[C@@H](Cc1c[nH]c2ccccc12)C(=O)N[C@@H](CC(C)C)C(=O)N[C@@H](CCCN=C(N)N)C(=O)N[C@@H](CCCCN)C(=O)N[C@@H](CCCCN)C(=O)N[C@@H](CC(C)C)C(=O)N[C@@H](CCC(N)=O)C(=O)N[C@@H](CC(=O)O)C(=O)N[C@H](C(=O)N[C@@H](Cc1cnc[nH]1)C(=O)N[C@@H](CC(N)=O)C(=O)N[C@@H](Cc1ccccc1)C(=O)O)C(C)C)C(C)C", "note": "[teriparatide, hPTH(1-34)]", "values": [
      {"measurement": "Highest serum calcium value obtained by any subject", "setting": "[1]; 4-hours post-dose", "value": 12.6, "unit": "mg/dL"},
      {"measurement": "Patients with serum calcium levels ≧10.5 mg/dL", "setting": "[1]; 4-hours post-dose", "value": 40, "unit": "%"},
      {"measurement": "Patients with serum calcium levels ≧10.5 mg/dL", "setting": "[1]; 24-hours after the last injection", "value": 16, "unit": "%"},
      {"measurement": "Highest serum calcium value obtained by any patient", "setting": "[1]; 24-hours post-dose", "value": 11.2, "unit": "mg/dL"},
      {"measurement": "Dizziness", "setting": "[1]; 24 weeks", "value": 4, "unit": "%"},
      {"measurement": "Incidence of headache", "setting": "[1]; 24 weeks", "value": 13, "unit": "%"},
      {"measurement": "Patients discontinued due to AEs", "setting": "[1]; 24 weeks", "value": 4, "unit": "%"},
      {"measurement": "Proportion of patients that experienced TEAEs", "setting": "[1]; 24 weeks", "value": 78, "unit": "%"},
      {"measurement": "TEAEs possibly or probably related to study treatment", "setting": "[1]; 24 weeks", "value": 29, "unit": "%"},
      {"measurement": "Treatment-related TEAEs", "setting": "[1]; extension to 48 weeks", "value": 21, "unit": "%"},
      {"measurement": "Fracture Rate, incident clinical fractures", "setting": "[2]", "value": 4.3, "unit": "%"},
      {"measurement": "Fracture Rate, incident non-vertebral fractures", "setting": "[2]", "value": 2.9, "unit": "%"},
      {"measurement": "Fracture Rate, major osteoporotic fractures", "setting": "[2]", "value": 2.8, "unit": "%"},
      {"measurement": "Fracture Rate, wrist", "setting": "[2]", "value": 2.1, "unit": "%"},
      {"measurement": "Fracture Risk Reduction v. PBO, incident clinical fractures", "setting": "[2]", "value": 29, "unit": "%"},
      {"measurement": "Fracture Risk Reduction v. PBO, incident non-vertebral fractures", "setting": "[2]", "value": 28, "unit": "%"},
      {"measurement": "Fracture Risk Reduction v. PBO, major osteoporotic fractures", "setting": "[2]", "value": 33, "unit": "%"},
      {"measurement": "Fracture Risk Reduction v. PBO, wrist", "setting": "[2]", "value": "−13", "unit": "%"},
      {"measurement": "Fracture rate, new vertebral fractures (excluding worsening)", "setting": "[2]", "value": 0.84, "unit": "%"},
      {"measurement": "Reduction of new vertebral fractures (excluding worsening) as compared to placebo", "setting": "[2]", "value": 80, "unit": "%"},
      {"measurement": "Fracture Risk Reduction v. PBO, incident clinical fractures", "setting": "[2]; listed as TPTD", "value": 29, "unit": "%"},
      {"measurement": "Fracture Risk Reduction v. PBO, incident non-vertebral fractures", "setting": "[2]; listed as TPTD", "value": 28, "unit": "%"},
      {"measurement": "Fracture Risk Reduction v. PBO, major osteoporotic fractures", "setting": "[2]; listed as TPTD", "value": 33, "unit": "%"},
      {"measurement": "Fracture Risk Reduction v. PBO, incident non-vertebral fractures", "setting": "[2]; listed as Teriparatide", "value": 28, "unit": "%"}
    ]}
  ]
}
